Assay [1] concerns the target T1, human M1 (Homo sapiens, UniProt P11229).
T1 construct: expressed in transfected cells; host or cells: CHO cells
T1 sequence (P11229 1-460): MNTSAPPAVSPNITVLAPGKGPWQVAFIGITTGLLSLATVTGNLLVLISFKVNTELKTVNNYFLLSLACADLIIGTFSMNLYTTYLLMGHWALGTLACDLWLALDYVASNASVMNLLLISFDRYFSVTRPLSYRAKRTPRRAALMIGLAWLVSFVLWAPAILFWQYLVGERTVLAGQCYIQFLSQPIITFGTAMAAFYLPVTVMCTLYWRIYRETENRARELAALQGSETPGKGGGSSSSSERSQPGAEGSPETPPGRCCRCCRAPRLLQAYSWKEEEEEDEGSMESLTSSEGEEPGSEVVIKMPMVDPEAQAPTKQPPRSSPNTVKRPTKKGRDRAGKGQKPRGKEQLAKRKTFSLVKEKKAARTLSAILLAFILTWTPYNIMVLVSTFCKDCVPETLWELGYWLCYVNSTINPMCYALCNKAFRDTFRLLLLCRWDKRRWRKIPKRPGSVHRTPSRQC
As to the kind of experiment: M1 PAM assay (FLIPR intracellular calcium), human M1. The format is cell-based. The procedure: The assay study the effect of several concentrations of test compounds on basal or acetylcholine-stimulated Ca^2+ levels using FLIPR.
CHO human M1 are plated the day before the experiments at 2×10^5 cells/ml in PDL BioCoat 96 well black/clear plate (Becton 35 4640). The cells are grown at 37° C. and 5% CO2 in the following medium: F12 Nut Mix (Gibco 21765), 10% FCS heat inactivated (GIBCO 16000-044), 1% Pen Strep (Gibco,15140) and 200 μg/ml Geneticin (Gibco 11811). On the day of the experiment, the medium was removed and replaced by […] of dye loading buffer containing Hanks Balanced Salt solution (HBSS, 14065-049, Gibco) with 20 mM HEPES (Gibco 15630-056), 2 mM Probenicid (Sigma P8761), […] ester (Molecular Probes F-14202), 10% Pluronic acid Molecular Probes P-3000) pH=7.4 and incubated at 37° C. After 60 minutes extracellular dye was removed and the cells were washed five times with FLIPR buffer containing HBSS (Gibco 14065-049) with 20 mM HEPES (Gibco, 15630-056), 2 mM Probenicid (Sigma P8761) pre-warmed at 37° C. using and Ebml cell washer leaving […] of FLIPR buffer in each well. The cell plate and the diluted compounds (1% DMSO final concentration) are placed on the platform of the FLIPR and the door closed. A signal test to check background fluorescence and basal fluorescence signal is performed. Laser intensity is adjusted if necessary. Two minutes preincubation with the diluted test compounds is provide to determine any agonist activity on the M1 receptor by comparison to 30 nM Acetylcholine control. In order to determine any modulator activity the diluted compounds were added to cells and after two minutes preincubation, the EC20 of acetylcholine is added followed by another two minutes preincubation before the measurement of intracellular Ca^2+ with a FLIPR (Molecular Devices).
(In general: Calcium assays in cells follow changes in intracellular calcium, usually with a dye or a luminescent sensor.)

The target of assay [2] is T2, ratM1 (Rattus norvegicus, UniProt P08482).
T2 construct: expressed in transfected cells; host or cells: CHO cells (stated generally for the assay, not specifically for rat M1)
T2 sequence (P08482 1-460): T1 sequence (P11229 1-460) with A5V, T254S, P309S, R320K, A337G, I413V
As to the kind of experiment: M1 PAM assay (FLIPR intracellular calcium), rat M1. The format is cell-based.

[3] abbreviates: CHO human M1 cells, FLIPR Ca2+, with EC20 of acetylcholine, first value of the cell, read-out: hM1 EC50.
The mark [4] stands for this setting: rat M1, FLIPR Ca2+, second value of the cell, read-out: ratM1 EC50.

Changes are numbered by the printed parent chain. pEC50: −log10 of the molar value. Like-named read-outs stand apart in the source and are kept apart here.

For the compound `Cn1cc(-c2ccc(Cn3cc(C(=O)N[C@H]4CCCC[C@]4(C)O)c4c(F)cccc43)c(F)c2)cn1` (racemic) [Example 18, 4-fluoro-1-(2-fluoro-4-(1-methyl-1H-pyrazol-4-yl)benzyl)-N-((1SR,2SR)-2-hydroxy-2-methylcyclohexyl)-1H-indole-3-carboxamide], the pEC50 in assay [1] (setting [3]) was 7.21; in assay [2] (setting [4]), 6.73.

As for `Cn1cc(-c2ccc(Cn3cc(C(=O)N[C@H]4CCCC[C@@]4(C)O)c4c(F)cccc43)c(F)c2)cn1` (racemic) [Example 23, 4-fluoro-1-(2-fluoro-4-(1-methyl-1H-pyrazol-4-yl)benzyl)-N-((1SR,2RS)-2-hydroxy-2-methylcyclohexyl)-1H-indole-3-carboxamide], the pEC50 is 7.83 in assay [1] (setting [3]) and 7.59 in assay [2] (setting [4]).

Take `Cn1cc(-c2ccc(Cn3cc(C(=O)N[C@@H]4C[C@@H]5CC[C@H]4O5)c4c(F)cccc43)c(F)c2)cn1` (relative stereo) [Example 104, N-((endo)-7-oxabicyclo[2.2.1]heptan-2-yl)-4-fluoro-1-(2-fluoro-4-(1-methyl-1H-pyrazol-4-yl)benzyl)-1H-indole-3-carboxamide]: the pEC50 in assay [1] (setting [3]) was 6.78; in assay [2] (setting [4]), 6.71.

Consider `Cc1cn(-c2ccc(Cn3cc(C(=O)N[C@H]4CCOC[C@@H]4O)c4c(F)cccc43)cc2)cn1` (single isomer, unassigned) [Example 51, 4-fluoro-N-((3R,4S) or (3S,4R)-3-hydroxytetrahydro-2H-pyran-4-yl)-1-(4-(4-methyl-1H-imidazol-1-yl)benzyl)-1H-indole-3-carboxamide], for which the pEC50 was 7.91 in assay [1] (setting [3]) and 7.95 in assay [2] (setting [4]).

Regarding `Cn1ncc2cc(Cn3cc(C(=O)N[C@H]4CCOC[C@@H]4O)c4c(F)cccc43)ccc21` (single isomer, unassigned) [Example 52, 4-fluoro-N-((3R,4S) or (3S,4R)-3-hydroxytetrahydro-2H-pyran-4-yl)-1-((1-methyl-1H-indazol-5-yl)methyl)-1H-indole-3-carboxamide], the values for the pEC50 in assay [1] and in assay [2] were 7.75 and 7.57, respectively.

Take `N#Cc1ccc(Cn2cc(C(=O)N[C@H]3CCOC[C@@H]3O)c3c(F)cccc32)cc1` (single isomer, unassigned) [Example 54, 1-(4-cyanobenzyl)-4-fluoro-N-((3R,4S) or (3S,4R)-3-hydroxytetrahydro-2H-pyran-4-yl)-1H-indole-3-carboxamide]: the figures for the pEC50 in assay [1] and in assay [2] were 7.16 and 6.91, respectively.

On to `Cn1cc(-c2ccc(Cn3cc(C(=O)N[C@H]4CCOC[C@@H]4O)c4c(F)cccc43)cc2)cn1` (single isomer, unassigned) [Example 55, 4-fluoro-N-((3R,4S) or (3S,4R)-3-hydroxytetrahydro-2H-pyran-4-yl)-1-(4-(1-methyl-1H-pyrazol-4-yl)benzyl)-1H-indole-3-carboxamide], for which the figures for the pEC50 in assay [1] (setting [3]) and in assay [2] (setting [4]) were 8.68 and 8.55, respectively.

`Cn1cc(-c2ccc(Cn3cc(C(=O)NC4CCOCC4O)c4c(F)c(F)c(F)c(F)c43)cc2)cn1` (single isomer, unassigned) [Example 62, 4,5,6,7-Tetrafluoro-N-((3S,4R) or (3R,4S))-3-hydroxytetrahydro-2H-pyran-4-yl)-1-(4-(1-methyl-1H-pyrazol-4-yl)benzyl)-1H-indole-3-carboxamide]: the results for the pEC50 in assay [1] (setting [3]) and in assay [2] (setting [4]) were 6.36 and 6.25, respectively.

Turning to `Cn1cc(-c2ccc(Cn3cc(C(=O)N[C@H]4CCOC[C@@H]4O)c4c(F)c(F)c(F)c(F)c43)cc2)cn1` (single isomer, unassigned) [Example 63, 4,5,6,7-Tetrafluoro-N-((3R,4S) or (3S,4R)-3-hydroxytetrahydro-2H-pyran-4-yl)-1-(4-(1-methyl-1H-pyrazol-4-yl)benzyl)-1H-indole-3-carboxamide], the values for the pEC50 in assay [1] (setting [3]) and in assay [2] (setting [4]) were 7.71 and 7.27, respectively.

On to `Cn1cc(-c2ccc(Cn3cc(C(=O)N[C@H]4CCOC[C@@H]4O)c4c(F)c(F)c(F)c(F)c43)c(F)c2)cn1` (single isomer, unassigned) [Example 64, 4,5,6,7-Tetrafluoro-1-(2-fluoro-4-(1-methyl-1H-pyrazol-4-yl)benzyl)-N-((3R,4S) or (3S,4R))-3-hydroxytetrahydro-2H-pyran-4-yl)-1H-indole-3-carboxamide], for which the pEC50 in assay [1] (setting [3]) is 7.26; in assay [2] (setting [4]), 7.10.

Consider `Cn1cc(-c2ccc(Cn3cc(C(=O)N[C@@H]4CCOC[C@H]4O)c4c(F)cccc43)c(F)c2)cn1` (single isomer, unassigned) [Example 70, 4-Fluoro-1-(2-fluoro-4-(1-methyl-1H-pyrazol-4-yl)benzyl)-N-((3S,4R) or (3R,4S)-3-hydroxytetrahydro-2H-pyran-4-yl)-1H-indole-3-carboxamide], for which the results for the pEC50 in assay [1] (setting [3]) and in assay [2] (setting [4]) were 6.99 and 6.55, respectively.

As to `Cn1cc(-c2ccc(Cn3cc(C(=O)N[C@H]4CCOC[C@@H]4O)c4c(F)cccc43)c(F)c2)cn1` (single isomer, unassigned) [Example 71, 4-Fluoro-1-(2-fluoro-4-(1-methyl-1H-pyrazol-4-yl)benzyl)-N-((3R,4S) or (3S,4R)-3-hydroxytetrahydro-2H-pyran-4-yl)-1H-indole-3-carboxamide], the pEC50 in assay [1] (setting [3]) was 8.23; in assay [2] (setting [4]), 7.92.

As for `Cn1cc(-c2ccc(Cn3cc(C(=O)N[C@H]4CCCC[C@@H]4O)c4c(F)cccc43)c(F)c2)cn1` [Example 1], the pEC50 was 8.25 in assay [1] (setting [3]) and 7.20 in assay [2] (setting [4]).

Consider `Cn1cc(-c2ccc(Cn3cc(C(=O)N[C@@H]4CCCC[C@H]4O)c4c(F)cccc43)c(F)c2)cn1` [Example 2], for which the values for the pEC50 in assay [1] (setting [3]) and in assay [2] (setting [4]) were 7.41 and 6.68, respectively.

`Cn1cc(-c2ccc(Cn3nc(C(=O)N[C@H]4CCCC[C@@H]4O)c4c(F)cccc43)c(F)c2)cn1` [Example 3, 4-fluoro-1-(2-fluoro-4-(1-methyl-1H-pyrazol-4-yl)benzyl)-N-((1S,2S)-2-hydroxycyclohexyl)-1H-indazole-3-carboxamide]: the pEC50 in assay [1] (setting [3]) was 7.60; in assay [2] (setting [4]), 7.04.

Take `Cn1cc(-c2ccc(Cn3nc(C(=O)N[C@@H]4CCCC[C@H]4O)c4c(F)cccc43)c(F)c2)cn1` [Example 4, 4-fluoro-1-(2-fluoro-4-(1-methyl-1H-pyrazol-4-yl)benzyl)-N-((1R,2R)-2-hydroxycyclohexyl)-1H-indazole-3-carboxamide]: the pEC50 in assay [1] (setting [3]) was 6.53; in assay [2] (setting [4]) it was 5.89.

For the compound `Cn1cc(-c2ccc(Cn3cc(C(=O)N[C@H]4CCCC[C@@H]4O)c4c(F)cc(F)cc43)c(F)c2)cn1` [Example 5, 4,6-difluoro-1-(2-fluoro-4-(1-methyl-1H-pyrazol-4-yl)benzyl)-N-((1S,2S)-2-hydroxycyclohexyl)-1H-indole-3-carboxamide], the negative-log EC50 (pEC50) in assay [1] (setting [3]) was 7.08; in assay [2] (setting [4]) it was 6.64.

For `CO[C@H]1COC[C@@H]1NC(=O)c1cn(Cc2ccc(-c3cnn(C)c3)cc2)c2cccc(F)c12` [Example 8, 4-fluoro-N-[(3S,4R)-4-methoxyoxolan-3-yl]-1-[[4-(1-methylpyrazol-4-yl)phenyl]methyl]indole-3-carboxamide], the negative logarithm of the EC50 (pEC50) in assay [1] (setting [3]) is 6.56; in assay [2] (setting [4]), 6.37.

The term pEC50 denotes −log10 of the EC50, conventionally taken in molar units.

These data come from US9708259B2 (Hoffmann-La Roche Inc., priority 2013, dated 2017).
